These compounds were tested against PARP7 (Homo sapiens (Human), UniProt Q7Z3E1) (assay: TR-FRET assay: displacement of biotinylated Probe A from the TIPARP active site (Enzymatic Assay for Inhibition of PARP7)). Conditions: TIPARP 6 nM, Probe A 2 nM, 25° C.
PARP7, sequence (Q7Z3E1 whole entry): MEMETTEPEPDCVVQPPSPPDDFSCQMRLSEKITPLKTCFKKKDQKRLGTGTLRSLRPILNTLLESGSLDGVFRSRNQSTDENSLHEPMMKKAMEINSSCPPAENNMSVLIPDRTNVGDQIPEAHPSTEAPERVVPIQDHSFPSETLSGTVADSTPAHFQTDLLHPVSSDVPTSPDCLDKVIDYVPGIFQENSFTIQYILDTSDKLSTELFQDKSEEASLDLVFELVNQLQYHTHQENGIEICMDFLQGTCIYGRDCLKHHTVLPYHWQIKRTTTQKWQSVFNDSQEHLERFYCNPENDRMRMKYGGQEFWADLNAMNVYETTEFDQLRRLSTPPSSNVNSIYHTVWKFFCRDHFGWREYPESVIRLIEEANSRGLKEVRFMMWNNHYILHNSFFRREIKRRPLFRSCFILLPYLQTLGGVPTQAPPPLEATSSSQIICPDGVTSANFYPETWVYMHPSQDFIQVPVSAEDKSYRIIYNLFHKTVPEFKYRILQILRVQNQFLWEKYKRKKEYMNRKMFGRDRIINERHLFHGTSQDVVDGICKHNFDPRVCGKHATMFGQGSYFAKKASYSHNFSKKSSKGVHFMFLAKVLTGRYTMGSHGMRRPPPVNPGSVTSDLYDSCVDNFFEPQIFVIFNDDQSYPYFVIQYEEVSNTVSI
Format: binding
Method: Example A. Enzymatic Assay for Inhibition of PARP7
Displacement of Probe A, a biotinylated probe binding to the TIPARP active site, was measured using a time-resolved fluorescence energy transfer (TR-FRET) assay. 20 nL of a dose response curve of each test compound was spotted in black 384-well polystyrene proxiplates (Perkin Elmer) using a Mosquito (TTP Labtech). Reactions were performed in a 8 μl volume by adding 6 μL of TIPARP and Probe A in assay buffer (20 mM HEPES pH=8, 100 mM NaCl, 0.1% bovine serum albumin, 2 mM DTT and 0.002% Tween20), incubating with test compound at 25° C. for 30 min, then adding 2 μL of ULight-anti 6×His and LANCE Eu-W1024 labeled streptavidin (Perkin Elmer). The final concentrations of TIPARP and Probe A were 6 nM and 2 nM, respectively. The final concentration of ULight-anti 6×His and LANCE Eu-W1024 labeled streptavidin were 4 nM and 0.25 nM, respectively. Reactions were incubated at 25° C. for an additional 30 min, then read on an Envision platereader equipped with a LANCE/DELFIA top mirror (Perkin Elmer) using excitation of 320 nm and emission of 615 nm and […] with a […]. The ratio of the 665/615 nm emission were calculated for each well to determine the amount of complex of TIPARP and Probe Ain each well. Control wells containing a negative control of 0.25% DMSO vehicle or a positive control of 100 μM 5-(5-(piperidin-4-yloxy)isoindolin-2-yl)-4-(trifluoromethyl)pyridazin-3(2H)-one were used to calculate the % inhibition as described below:
[formula] where TRFcmpd is the TR-FRET ratio from the compound treated well, TRFmin is the TR-FRET ratio from the 5-(5-(piperidin-4-yloxy)isoindolin-2-yl)-4-(trifluoromethyl)pyridazin-3(2H)-one—treated positive control well and TRFmax is the TR-FRET ratio from the DMSO-treated negative control well. The % inhibition values were plotted as a function of compound concentration and the following 4-parameter fit was applied to derive the IC50 values:
[formula] where top and bottom are normally allowed to float, but may be fixed at 100 or 0 respectively in a 3-parameter fit. The Hill Coefficient is normally allowed to float but may also be fixed at 1 in a 3-parameter fit. Y is the % inhibition and X is the compound concentration. Synthesis of Probe A
`C[C@@H](CO[C@H]1CCN(C2CCN(c3cnc(C(F)(F)F)cn3)CC2)C1=O)Nc1cn[nH]c(=O)c1C(F)(F)F` [Example 13A, 5-(((S)-1-(((S)-2-oxo-1-(1-(5-(trifluoromethyl)pyrazin-2-yl)piperidin-4-yl)pyrrolidin-3-yl)oxy)propan-2-yl)amino)-4-(trifluoromethyl)pyridazin-3(2H)-one] was tested, and the IC50 was 100 to 1000 nM. For `C[C@@H](CO[C@@H]1CCN(C2CCN(c3cnc(C(F)(F)F)cn3)CC2)C1=O)Nc1cn[nH]c(=O)c1C(F)(F)F` [Example 13B, 5-(((S)-1-(((R)-2-oxo-1-(1-(5-(trifluoromethyl)pyrazin-2-yl)piperidin-4-yl)pyrrolidin-3-yl)oxy)propan-2-yl)amino)-4-(trifluoromethyl)pyridazin-3(2H)-one], the IC50 was under 100 nM. With `C[C@@H](CO[C@H]1CCN(C2CCN(c3ccc(C#N)cn3)CC2)C1=O)Nc1cn[nH]c(=O)c1C(F)(F)F` [Example 14A, 6-(4-((S)-2-oxo-3-((S)-2-((6-oxo-5-(trifluoromethyl)-1,6-dihydropyridazin-4-yl)amino)propoxy)pyrrolidin-1-yl)piperidin-1-yl)nicotinonitrile] the IC50 was at least 1000 nM. `C[C@@H](CO[C@@H]1CCN(C2CCN(c3ccc(C#N)cn3)CC2)C1=O)Nc1cn[nH]c(=O)c1C(F)(F)F` [Example 14B, 6-(4-((R)-2-oxo-3-((S)-2-((6-oxo-5-(trifluoromethyl)-1,6-dihydropyridazin-4-yl)amino)propoxy)pyrrolidin-1-yl)piperidin-1-yl)nicotinonitrile] showed an IC50 of under 100 nM. With `C[C@@H](CO[C@H]1CCN(C2CCN(c3ncc(C(F)F)cn3)CC2)C1=O)Nc1cn[nH]c(=O)c1C(F)(F)F` [Example 15A, 5-(((S)-1-(((S)-1-(1-(5-(difluoromethyl)pyrimidin-2-yl)piperidin-4-yl)-2-oxopyrrolidin-3-yl)oxy)propan-2-yl)amino)-4-(trifluoromethyl)pyridazin-3(2H)-one] the IC50 was 100 to 1000 nM. `C[C@@H](CO[C@@H]1CCN(C2CCN(c3ncc(C(F)F)cn3)CC2)C1=O)Nc1cn[nH]c(=O)c1C(F)(F)F` [Example 15B, 5-(((S)-1-(((R)-1-(1-(5-(difluoromethyl)pyrimidin-2-yl)piperidin-4-yl)-2-oxopyrrolidin-3-yl)oxy)propan-2-yl)amino)-4-(trifluoromethyl)pyridazin-3(2H)-one] gave an IC50 of under 100 nM. In the case of `C[C@@H](CO[C@@H]1CCN(C2CCN(c3ncc(Cl)cn3)CC2)C1=O)Nc1cn[nH]c(=O)c1C(F)(F)F` [Example 16, 5-(((S)-1-(((R)-1-(1-(5-chloropyrimidin-2-yl)piperidin-4-yl)-2-oxopyrrolidin-3-yl)oxy)propan-2-yl)amino)-4-(trifluoromethyl)pyridazin-3(2H)-one], the IC50 is reported as under 100 nM. `COC[C@@H](CO[C@H]1CCN(C2CCN(c3ccc(C#N)cn3)CC2)C1=O)Nc1cn[nH]c(=O)c1C(F)(F)F` [Example 17A, 6-(4-((S)-3-((S)-3-methoxy-2-((6-oxo-5-(trifluoromethyl)-1,6-dihydropyridazin-4-yl)amino)propoxy)-2-oxopyrrolidin-1-yl)piperidin-1-yl)nicotinonitrile] gave an IC50 of 100 to 1000 nM. `COC[C@@H](CO[C@@H]1CCN(C2CCN(c3ccc(C#N)cn3)CC2)C1=O)Nc1cn[nH]c(=O)c1C(F)(F)F` [Example 17B, 6-(4-((R)-3-((S)-3-methoxy-2-((6-oxo-5-(trifluoromethyl)-1,6-dihydropyridazin-4-yl)amino)propoxy)-2-oxopyrrolidin-1-yl)piperidin-1-yl)nicotinonitrile] showed an IC50 of under 100 nM. `COC[C@@H](CO[C@H]1CCN(C2CCN(c3cnc(C(F)(F)F)cn3)CC2)C1=O)Nc1cn[nH]c(=O)c1C(F)(F)F` [Example 18A, 5-(((S)-1-methoxy-3-(((S)-2-oxo-1-(1-(5-(trifluoromethyl)pyrazin-2-yl)piperidin-4-yl)pyrrolidin-3-yl)oxy)propan-2-yl)amino)-4-(trifluoromethyl)pyridazin-3(2H)-one] was tested, and the IC50 was 100 to 1000 nM. Work on `COC[C@@H](CO[C@@H]1CCN(C2CCN(c3cnc(C(F)(F)F)cn3)CC2)C1=O)Nc1cn[nH]c(=O)c1C(F)(F)F` [Example 18B] yielded an IC50 of under 100 nM. With `COC[C@@H](CO[C@H]1CCN(C2CCN(c3ncc(C(F)(F)F)cn3)CC2)C1=O)Nc1cn[nH]c(=O)c1C(F)(F)F` [Example 19A, 5-(((S)-1-methoxy-3-(((S)-2-oxo-1-(1-(5-(trifluoromethyl)pyrimidin-2-yl)piperidin-4-yl)pyrrolidin-3-yl)oxy)propan-2-yl)amino)-4-(trifluoromethyl)pyridazin-3(2H)-one] the IC50 was 100 to 1000 nM. `COC[C@@H](CO[C@@H]1CCN(C2CCN(c3ncc(C(F)(F)F)cn3)CC2)C1=O)Nc1cn[nH]c(=O)c1C(F)(F)F` [Example 19B, 5-(((S)-1-methoxy-3-(((R)-2-oxo-1-(1-(5-(trifluoromethyl)pyrimidin-2-yl)piperidin-4-yl)pyrrolidin-3-yl)oxy)propan-2-yl)amino)-4-(trifluoromethyl)pyridazin-3(2H)-one] was tested, and the IC50 was under 100 nM. For `C[C@@H](CO[C@H]1CCN(C2CCN(c3ncc(C(F)(F)F)cn3)CC2)C1=O)Oc1cn[nH]c(=O)c1C(F)(F)F` [Example 20A, 5-(((S)-1-(((S)-2-oxo-1-(1-(5-(trifluoromethyl)pyrimidin-2-yl)piperidin-4-yl)pyrrolidin-3-yl)oxy)propan-2-yl)oxy)-4-(trifluoromethyl)pyridazin-3(2H)-one], the IC50 was under 100 nM. `C[C@@H](CO[C@@H]1CCN(C2CCN(c3ncc(C(F)(F)F)cn3)CC2)C1=O)Oc1cn[nH]c(=O)c1C(F)(F)F` [Example 20B, 5-(((S)-1-(((R)-2-oxo-1-(1-(5-(trifluoromethyl)pyrimidin-2-yl)piperidin-4-yl)pyrrolidin-3-yl)oxy)propan-2-yl)oxy)-4-(trifluoromethyl)pyridazin-3(2H)-one] gave an IC50 of under 100 nM. `C[C@@H](COC1CCN(C2CCN(c3ncc(C(F)(F)F)cn3)CC2)C1)Nc1cn[nH]c(=O)c1C(F)(F)F` (stereo partly drawn) [Example 21, 4-(trifluoromethyl)-5-(((2S)-1-((1-(1-(5-(trifluoromethyl)pyrimidin-2-yl)piperidin-4-yl)pyrrolidin-3-yl)oxy)propan-2-yl)amino)pyridazin-3(2H)-one] gave an IC50 of 100 to 1000 nM. Compound `C[C@@H](CO[C@H]1CCN(C2CCN(c3cnc(C(F)F)cn3)CC2)C1=O)Nc1cn[nH]c(=O)c1C(F)(F)F` [Example 22A, 5-(((S)-1-(((S)-1-(1-(5-(difluoromethyl)pyrazin-2-yl)piperidin-4-yl)-2-oxopyrrolidin-3-yl)oxy)propan-2-yl)amino)-4-(trifluoromethyl)pyridazin-3(2H)-one] has an IC50 of 100 to 1000 nM. Compound `C[C@@H](CO[C@@H]1CCN(C2CCN(c3cnc(C(F)F)cn3)CC2)C1=O)Nc1cn[nH]c(=O)c1C(F)(F)F` [Example 22B, 5-(((S)-1-(((R)-1-(1-(5-(difluoromethyl)pyrazin-2-yl)piperidin-4-yl)-2-oxopyrrolidin-3-yl)oxy)propan-2-yl)amino)-4-(trifluoromethyl)pyridazin-3(2H)-one] has an IC50 of under 100 nM. `C[C@@H](COCC(=O)N(C)C1CCN(c2ncc(C(F)(F)F)cn2)CC1)Oc1cn[nH]c(=O)c1C(F)(F)F` [Example 25, (S)-N-methyl-2-(2-((6-oxo-5-(trifluoromethyl)-1,6-dihydropyridazin-4-yl)oxy)propoxy)-N-(1-(5-(trifluoromethyl)pyrimidin-2-yl)piperidin-4-yl)acetamide] gave an IC50 of under 100 nM. In the case of `C[C@@H](CN[C@@H]1CCN(C2CCN(c3ncc(C(F)(F)F)cn3)CC2)C1=O)Nc1cn[nH]c(=O)c1C(F)(F)F` [Example 26B, 5-(((S)-1-(((R)-2-oxo-1-(1-(5-(trifluoromethyl)pyrimidin-2-yl)piperidin-4-yl)pyrrolidin-3-yl)amino)propan-2-yl)amino)-4-(trifluoromethyl)pyridazin-3(2H)-one], the IC50 is reported as under 100 nM. In the case of `C[C@@H](COC1CCN(C2CCN(c3ncc(C(F)F)cn3)CC2)C1=O)Oc1cn[nH]c(=O)c1C(F)(F)F` (stereo partly drawn) [Example 27, 5-(((2S)-1-((1-(1-(5-(difluoromethyl)pyrimidin-2-yl)piperidin-4-yl)-2-oxopyrrolidin-3-yl)oxy)propan-2-yl)oxy)-4-(trifluoromethyl)pyridazin-3(2H)-one], the IC50 is reported as under 100 nM. `C[C@@H](COCC(=O)N(C)C1CCN(c2ncc(C(F)(F)F)cn2)CC1)Oc1cn[nH]c(=O)c1Br` [Example 28, (S)-2-(2-((5-bromo-6-oxo-1,6-dihydropyridazin-4-yl)oxy)propoxy)-N-methyl-N-(1-(5-(trifluoromethyl)pyrimidin-2-yl)piperidin-4-yl)acetamide] gave an IC50 of under 100 nM.

Source: patent US11691969B2, “Pyridazinones as PARP7 inhibtors” (Ribon Therapeutics, Inc., priority 2019, dated 2023)
